Reference: article PMC3126777, “Selective anticancer activity of a hexapeptide with sequence homology to a non-kinase domain of Cyclin Dependent Kinase 4” (Molecular Cancer, 2011)
“Also recorded” adds a separate entry of the source. Read-outs that look alike come from different tables or passages of the source.

Key:
[1] = test system: H460 Human Non-small Cell Lung Cancer
[2] = test system: normal diploid human fibroblasts; assay: In-vitro morphological cell viability screen, normal fibroblasts; format: cell-based; settings: for effect on normal diploid fibroblasts (in words): 5 mM
Protocol: (§2) A broad search for possible biological activity associated with the [sequence] peptide sequence was initially instituted by screening human bladder cancer cell lines for potential in-vitro morphological changes, compared to control cultures of normal diploid human fibroblasts at 4-8 passages from primary culture as controls. […] The peptides were dissolved, over a range of concentrations, in Ham's F12 + 10% FCS and introduced in 100 μL quantities to microwells containing 500 RT112 bladder cancer cells, or normal diploid human fibroblasts, in 200 μL of Ham's F12 + 10% FCS plated 24 hours earlier on 96 well plates.

[3] = test system: RT112 human bladder cancer cells; assay: In-vitro morphological cell viability screen, RT112; format: cell-based; settings: for Cell Viability Human Bladder Cancer: RT112, dose 5.0 mM, Ham's F12 + 10% FCS, morphological appearance
Protocol: as §2

[4] = test system: Cdk1 and Cdk4 expression in RT112 cells; assay: Western blotting of Cdk1 and Cdk4 expression, RT112; format: cell-based, human; settings: RT112, 5 mM linear end-capped peptide, 0 - 10 days, Western blot
Excerpt: This co-expression is unaffected by cytocidal doses of cisdiamminedichloroplatinum but can accompany spontaneous cancer cell death. Whether or not Cdk1/Cdk4 co-expression remained constant in cancer cells dying as a result of exposure to PRGPRP was thus examined by Western blotting.
(§1) All cell lines were from certified sources.

NCI-H460 cells [5] = assay: Mitochondrial function (alamar blue); format: cell-based, human; settings: H460, chloroquine, 96 hours after initial exposure (Figure 7B)
Protocol: Mitochondrial function (alamar blue) NCI-H460 cells were grown in Ham's F12 media supplemented with 10% FCS. Cells were harvested and added to 96-well plates at densities of 250-1000. Compounds were made up from stock solutions and added directly to cells at the concentrations indicated. Cells were grown with compound for the indicated time at 37°C, 5% CO2, in a humidified atmosphere. Alamar Blue 10% (v/v) was then added and incubated for a further 4 h, and fluorescent product detected using the BMG FLUOstar plate reader. The media only background was subtracted and the data analysed as appropriate.

NCI-H460 cells [6] = assay: Cellular ATP levels (CellTiter-Glo assay); format: cell-based, human; settings: H460, chloroquine, 96 hours after initial exposure (Figure 7B)
Protocol: Cellular ATP levels (CellTiter-Glo assay) Cells were grown, seeded and compound-treated as for the alamar Blue assay. A volume of the CellTiter-Glo reagent equal to the volume of cell culture media was added to the cells. Plates were mixed for 2 min on an orbital shaker to induce cell lysis before the plate was incubated at room temperature for 10 min to stabilize the signal. The luminescent signal was measured and the media only background was subtracted.

NCI-H460 cells [7] = assay: Total cellular protein (sulphorhodamine B assay); format: cell-based, human; settings: H460, chloroquine, 96 hours after initial exposure (Figure 7B)
Protocol: Control medium/alamar blue were removed and 200 μl PBS was added. […] Wells were rinsed with water and allowed to air dry. Cells were then stained in 0.4% SRB solution, before rinsing with 1% acetic acid and air drying. Incorporated dye was solubilised in 10 mM Tris and absorbance measured at 565 nm and 690 nm. Absorbance measurements at 690 nm were subtracted from the 565 nm readings to correct for multi-well plate absorbance.

H460 cells = assay: Autophagy Assay (Cyto-ID Green, flow cytometry); format: cell-based, human; settings: H460, 25 μM, positive control, 72 h and 96 h
Protocol: Autophagy Assay was performed as recommended by the manufacturers' instructions (Enzo ENZ-51031-[…]). Briefly, H460 cells were seeded into 6 well plates at 2.5 × 10^5 and 1 × 10^5 cells/well. Immediately after cell plating, chloroquine or […] were added at the concentrations indicated. Following compound treatment, cells were washed once in PBS and resuspended in x1 Cyto-ID Green autophagy detection reagent and incubated at room temperature for 30 min. Immediately prior to analysis, propidium iodide (PI) solution was added to the cell suspension at a final concentration of 2.5 μg/ml, to assess cell death. Analysis was carried out using FACSCalibur (BD Biosciences). Cyto-ID Green autophagy reagent was measured in the FL-1 channel (530/30 nm bandpass filters with excitation at 488 nm) and PI measured in the FL-3 channel (670 nm longpass filters with excitation at 488 nm).

[8] = test system: H460 human non-small cell lung cancer cells; assay: Necrosis assay by Trypan Blue exclusion, H460; format: cell-based; settings: H460, 200 μM, 2, 3, 4 and 7 days after plating, triplicate wells
Protocol: Necrosis Assay Cells were plated in triplicate in 96 well plates at concentrations of 500 cells per well (HT1299, MCF-7) or 1000 cells per well (H460, MRC5-hTERT) in the presence or absence of the relevant compound and assessed by Trypan Blue exclusion At 2,3,4 and 7 days after plating. To assay, cells were trypsinised off, stained with trypan blue in isotonic medium and live and dead cells separately counted visually by haemocytomter. Each data point is the mean of results from triplicate wells (Solid lines - Live cells, Broken lines - Dead Cells; Blue - Control, Red - THR53 200 μM).

[9] = test system: RT112 human bladder cancer and H460 human non-small lung cancer cell lines; assay: Cell killing by cyclic amphiphilic peptides (viability and clonogenic survival); format: cell-based; settings: for improvement in selective cancer cell cytotoxicity: cyclic amphiphilic cassettes compared with the earlier PRGPRP peptides; for time at which cell killing reached a maximum: for the majority of cell lines
Excerpt: Attempts to limit proteolysis and improve cell uptake, by incorporating the hexameric peptide sequence into cyclic peptide cassettes were undertaken, initially without success (Table 3,X-XIII). Linear constructs attaching PRGPRP to a known cell-internalising amphiphilic sequence were also unsuccessful (Table 3,XIV and 3XV). […] Selective toxicity to these cancer cell lines, and not normal fibroblasts, was retained (Table 4).
as §1

[10] = dose 5.0 mM, Ham's F12 + 10% FCS, morphological appearance

Compound | Cell Viability Human Non-small Cell Lung Cancer ([1]; H460, dose 200 μM) | Cell Viability Normal Diploid Fibroblasts ([2]; dose 200 μM) | Cell Viability Human Bladder Cancer [3] | Cell Viability Normal Diploid Fibroblasts [2, 10] | also measured
Cyc-GGGGGGPRGPRPGGGGGG] (head to tail) [XII] | + + + | + + + |  |  | 
Linear FPPRGPRPVKLALKLALK [XIV, linear amphiphilic analogue of PRGPRP, …] | + + + | + + + |  |  | 
Ac-PRGPRP-NH2 [THR1, linear N'-capped PRGPRP-amide hexapeptide] |  |  | - - - | + + + + + | toxicity to RT112 human bladder cancer cells (in words) ([3]; 5 mM): greater selective toxicity; also recorded: complete necrosis; Cdk1 expression compared to Cdk4 [4]: progressive rise; effect on normal diploid fibroblasts (in words) [2]: stimulates normal fibroblast growth; also recorded: increases the confluent cell density
CCN(CC)CCCC(C)Nc1ccnc2cc(Cl)ccc12 (centres unmarked) [Chloroquine, reference compound] |  |  |  |  | mitochondrial oxidation/reduction (NCI-H460 cells [5]): ubiquitous effect; ATP levels (NCI-H460 cells [6]): ubiquitous effect; total cellular protein (NCI-H460 cells [7]): ubiquitous effect; autophagy, Cyto-ID Green FL-1 peak (H460 cells): increase in autophagy
Cyc-[AAAGGGPRGPRPGGGAAA] (head to tail) [X, cyclic non-amphiphilic analogue of PRGPRP, Cyc-[…]] | + + + | + + + |  |  | 
Linear PRGPRPVALKLALKLAL [XV, linear amphiphilic analogue of PRGPRP, …] | + + + | + + + |  |  | 
Cyc-[PRGPR(Me)PVALKLALKLAL] (head to tail) [XXI] | ++ + |  |  |  | 
RGPR [V, shorter linear peptide RGPR] |  |  | + + + | + + + | toxicity to RT112 human bladder cancer cells (in words) ([3]; 5 mM): inactive
Cyc-[GGGGGGPRGPRPGGGGGG] (head to tail) [XI, cyclic non-amphiphilic analogue of PRGPRP, Cyc-[…]] | + + + | + + + |  |  | 
Cyc-[FPPRRPGPVKLALKLALK] (head to tail) [THR53C, PRRPGP in cyclic amphiphilic cassette, Cyc-[…]] | + + + | + + + |  |  | necrosis detected by trypan blue uptake [8]: not with THR53C
Cyc-[PRGPRPvalklalklal] (head to tail) [THR79, cyclic amphiphilic analogue with D-amino acids, Cyc-[PRGPRPvalklalklal]] |  |  |  |  | Cell Viability Human Non-small Cell Lung Cancer ([1]; H460, dose 50 μM): _ _ _; improvement in selective cancer cell cytotoxicity [9]: fifty- to a hundred-fold improvement; time at which cell killing reached a maximum [9]: ≤ 4 days; Cell Viability Normal Diploid Fibroblasts ([2]; dose 50 μM): + + +
PRGPR [III, linear N'-capped synthetic peptide amide PRGPR] |  |  | - - - | + + + | 
FPPRGPRPVQ [I] |  |  |  |  | toxicity to RT112 human bladder cancer cells (in words) ([3]; 1.0 mM): selectively toxic; effect on normal fibroblasts (in words) ([2]; 1.0 mM): partial sparing; Cell Viability Normal Diploid Fibroblasts ([2]; dose 1.0 mM, Ham's F12 + 10% FCS, morphological appearance): + +/-
PRGPEP [VIII, hexapeptide with arginine substituted by glutamic acid] |  |  | + + + | + + + | toxicity to RT112 human bladder cancer cells (in words) ([3]; 5 mM): lacked cytotoxic activity; effect on normal diploid fibroblasts (in words) [2]: no effect
Cyc-[PRGPRPVALKLALKLAL] (head to tail) [THR54, cyclic amphiphilic analogue, Cyc-[…]] |  |  |  |  | Cell Viability Human Non-small Cell Lung Cancer ([1]; H460, dose 100 μM): _ _ _; improvement in selective cancer cell cytotoxicity [9]: fifty- to a hundred-fold improvement; time at which cell killing reached a maximum [9]: ≤ 4 days; Cell Viability Normal Diploid Fibroblasts ([2]; dose 100 μM): + + +
Cyc-[PR(Me)GPRPVALKLALKLAL] (head to tail) [XX] | + +/- |  |  |  | 
PEGPEP [IX, hexapeptide with both arginines substituted by glutamic acid] |  |  | + + + | + + + | 
PRRPGP [VI, linear end-capped hexapeptide PRRPGP, one arginine transposed] |  |  | + + + | + + + | toxicity to RT112 human bladder cancer cells (in words) ([3]; 5 mM): markedly diminishes RT112 human bladder cancer cell killing; Cdk1 expression compared to Cdk4 [4]: not PRRPGP
Cyc-[AAGPGGPRGPRPGGPGAA] (head to tail) [XIII, cyclic non-amphiphilic analogue of PRGPRP, Cyc-[…]] | + + + | + + + |  |  | 
PEGPRP [VII, hexapeptide with arginine substituted by glutamic acid] |  |  | + + + | + + + | toxicity to RT112 human bladder cancer cells (in words) ([3]; 5 mM): lacked cytotoxic activity; effect on normal diploid fibroblasts (in words) [2]: no effect
RGPRP [IV, linear N'-capped synthetic pentapeptide amide RGPRP] |  |  |  | + + + | toxicity to RT112 human bladder cancer cells (in words) ([3]; 5 mM): greater selective toxicity; effect on normal diploid fibroblasts (in words) [2]: sparing normal diploid fibroblasts
